Assay results reported in PubChem BioAssay AID248 (DTP/NCI, 2004).
Values joined by “and” are separate entries in the source; they are usually repeats but may differ in a detail not shown here. Identical values can stand only once. Toxic doses and inconclusive results are not listed. Cut-off read from the data, not from the text of the source: active = T/C of 150% or more; inactive = T/C below 125%. Peptide text beside a SMILES is read from it. * marks the point of attachment. Cbz = O=C(OCc1ccccc1)*

Test system: L1210 leukemia ip in BDF1 mice, survival T/C
Experiment: NCI In Vivo Anticancer Drug Screen. Data for tumor model L1210 Leukemia (intraperitoneal) in B6D2F1 (BDF1) mice
Conditions: endpoint: mean survival time, higher = longer survival
Method in brief: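 Read-out is survival time, reported as the treated-group measurement over the vehicle-control measurement.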

[1] = dose: 3.12 mg/kg/injection, schedule: Q01DX009 (ip), vehicle: saline
[2] = dose: 6.25 mg/kg/injection, schedule: Q01DX009 (ip), vehicle: saline
[3] = dose: 12.5 mg/kg/injection, schedule: Q01DX009 (ip), vehicle: saline
[4] = dose: 25.0 mg/kg/injection, schedule: Q01DX009 (ip), vehicle: saline
[5] = dose: 25.0 mg/kg/injection, schedule: Q01DX009 (ip), vehicle: water
[6] = dose: 50.0 mg/kg/injection, schedule: Q01DX009 (ip), vehicle: water
[7] = dose: 75.0 mg/kg/injection, schedule: Q01DX001 (ip), vehicle: saline
[8] = dose: 150.0 mg/kg/injection, schedule: Q01DX001 (ip), vehicle: saline
[9] = dose: 100.0 mg/kg/injection, schedule: Q01DX001 (ip), vehicle: Klucel (hydroxypropylcellulose) (HPC)
[10] = dose: 200.0 mg/kg/injection, schedule: Q01DX001 (ip), vehicle: Klucel (hydroxypropylcellulose) (HPC)
[11] = dose: 100.0 mg/kg/injection, schedule: Q04DX003 (ip), vehicle: Klucel (hydroxypropylcellulose) (HPC)
[12] = dose: 200.0 mg/kg/injection, schedule: Q04DX003 (ip), vehicle: Klucel (hydroxypropylcellulose) (HPC)
[13] = dose: 400.0 mg/kg/injection, schedule: Q04DX003 (ip), vehicle: Klucel (hydroxypropylcellulose) (HPC)
[14] = dose: 100.0 mg/kg/injection, schedule: Q04DX003 (ip), vehicle: saline
[15] = dose: 200.0 mg/kg/injection, schedule: Q04DX003 (ip), vehicle: saline
[16] = dose: 400.0 mg/kg/injection, schedule: Q04DX003 (ip), vehicle: saline
[17] = dose: 100.0 mg/kg/injection, schedule: Q04DX002 (ip), vehicle: Klucel (hydroxypropylcellulose) (HPC)
[18] = dose: 200.0 mg/kg/injection, schedule: Q04DX002 (ip), vehicle: Klucel (hydroxypropylcellulose) (HPC)
[19] = dose: 400.0 mg/kg/injection, schedule: Q04DX002 (ip), vehicle: Klucel (hydroxypropylcellulose) (HPC)
[20] = dose: 100.0 mg/kg/injection, schedule: Q01DX009 (ip), vehicle: saline
[21] = dose: 100.0 mg/kg/injection, schedule: Q01DX009 (ip), vehicle: saline with Tween-80
[22] = dose: 200.0 mg/kg/injection, schedule: Q01DX009 (ip), vehicle: saline with Tween-80
[23] = dose: 400.0 mg/kg/injection, schedule: Q01DX009 (ip), vehicle: saline with Tween-80
[24] = dose: 100.0 mg/kg/injection, schedule: Q01DX009 (ip), vehicle: Klucel (hydroxypropylcellulose) (HPC)
[25] = dose: 200.0 mg/kg/injection, schedule: Q01DX009 (ip), vehicle: Klucel (hydroxypropylcellulose) (HPC)
[26] = dose: 400.0 mg/kg/injection, schedule: Q01DX009 (ip), vehicle: Klucel (hydroxypropylcellulose) (HPC)

Measured: T/C

O=[N+]([O-])c1ccc(C[Se]c2ncnc3c2ncn3C2OC(CO)C(O)C2O)cc1 (stereo unspecified)
inactive: [1] 100 % of control | dose: 6.25 mg/kg/injection, schedule: Q01DX005 (ip), vehicle: saline 106 % of control | [2] 98 % of control | dose: 12.5 mg/kg/injection, schedule: Q01DX005 (ip), vehicle: saline 96 % of control | [3] 98 % of control | dose: 12.5 mg/kg/injection, schedule: Q01DX009 (ip), vehicle: water 93 % of control | dose: 25.0 mg/kg/injection, schedule: Q01DX005 (ip), vehicle: saline 109 % of control | [4] 102 % of control | [5] 98 % of control | [6] 93 % of control

CCN(CC)CCCC(C)Nc1cc(N)nc2nc(-c3ccc(Cl)cc3)cnc12 (stereo unspecified)
inactive: [7] 94 % of control | [8] 101 % of control

CN(C1=CC(=O)C(=O)c2ccccc21)c1ccccc1
inactive: dose: 50.0 mg/kg/injection, schedule: Q01DX001 (ip), vehicle: Klucel (hydroxypropylcellulose) (HPC) 95 % of control | [9] 97 % of control | [10] 97 % of control

O=C1NC(=O)C(c2cccc(Cl)c2)N1 (stereo unspecified)
inactive: dose: 50.0 mg/kg/injection, schedule: Q01DX001 (ip), vehicle: saline 106 % of control | dose: 100.0 mg/kg/injection, schedule: Q01DX001 (ip), vehicle: saline 93 % of control | dose: 200.0 mg/kg/injection, schedule: Q01DX001 (ip), vehicle: saline 98 % of control | dose: 400.0 mg/kg/injection, schedule: Q01DX001 (ip), vehicle: saline 104 % of control

Oc1ccccc1/C=N/n1cnnc1
inactive: [11] 98 % of control | [12] 100 % of control | [13] 100 % of control

O=C(COc1ccc(Cl)cc1Cl)Nc1cccc2c1C(=O)c1ccccc1C2=O
inactive: dose: 100.0 mg/kg/injection, schedule: Q04DX002 (ip), vehicle: saline + alcohol 96 % of control | dose: 200.0 mg/kg/injection, schedule: Q04DX002 (ip), vehicle: saline + alcohol 100 % of control | dose: 400.0 mg/kg/injection, schedule: Q04DX002 (ip), vehicle: saline + alcohol 96 % of control

O=[N+]([O-])c1cccc2nc(N/N=C/c3ccccc3O)ccc12
inactive: [5] 89 % of control | [6] 94 % of control | dose: 200.0 mg/kg/injection, schedule: Q01DX009 (ip), vehicle: water 94 % of control | dose: 400.0 mg/kg/injection, schedule: Q01DX009 (ip), vehicle: water 93 % of control

Cn1nnnc1/N=C/c1ccccc1
inactive: [14] 105 % of control | [15] 94 % of control | [16] 94 % of control

CCOC(=O)N(c1ccccc1)c1ccccc1
inactive: [17] 106 % of control | [18] 106 % of control | [19] 98 % of control

COc1ccc(OC)c(N(CCN2C(=O)c3ccccc3C2=O)C(=O)C2CCC(=O)C2C)c1 (stereo unspecified)
inactive: dose: 100.0 mg/kg/injection, schedule: Q04DX002 (ip), vehicle: saline with Tween-80 100 % of control | dose: 200.0 mg/kg/injection, schedule: Q04DX002 (ip), vehicle: saline with Tween-80 103 % of control | dose: 400.0 mg/kg/injection, schedule: Q04DX002 (ip), vehicle: saline with Tween-80 97 % of control

CC(=O)NCSCC(N)C(=O)O (stereo unspecified)
inactive: [20] 100 % of control | [14] 108 % of control | dose: 200.0 mg/kg/injection, schedule: Q01DX009 (ip), vehicle: saline 95 % of control | [15] 92 % of control | dose: 400.0 mg/kg/injection, schedule: Q01DX009 (ip), vehicle: saline 92 % of control | [16] 94 % of control

COc1ccc2ccc(=O)oc2c1CC=C(C)C
inactive: dose: 100.0 mg/kg/injection, schedule: Q01DX001 (ip), vehicle: other 98 % of control | dose: 200.0 mg/kg/injection, schedule: Q01DX001 (ip), vehicle: other 93 % of control | dose: 400.0 mg/kg/injection, schedule: Q01DX001 (ip), vehicle: other 101 % of control

N#CCCP(CCC#N)CCCCCCP(CCC#N)CCC#N
inactive: dose: 25.0 mg/kg/injection, schedule: Q04DX003 (ip), vehicle: saline with Tween-80 97 % of control | dose: 50.0 mg/kg/injection, schedule: Q04DX003 (ip), vehicle: saline with Tween-80 90 % of control | dose: 100.0 mg/kg/injection, schedule: Q04DX003 (ip), vehicle: saline with Tween-80 96 % of control and 90 % of control

c1ccc(Cc2nn[nH]n2)cc1
inactive: [17] 105 % of control | [18] 101 % of control | [19] 105 % of control

c1ccc(C2CCCCO2)cc1 (stereo unspecified)
inactive: [21] 94 % of control | [22] 100 % of control | [23] 88 % of control

CN(C)CC(C)(C)CN1c2ccccc2Sc2ccccc21
inactive: [1] 90 % of control | [2] 103 % of control | [3] 101 % of control | [4] 97 % of control | dose: 25.0 mg/kg/injection, schedule: Q04DX003 (ip), vehicle: saline 101 % of control | dose: 50.0 mg/kg/injection, schedule: Q01DX009 (ip), vehicle: saline 106 % of control | dose: 50.0 mg/kg/injection, schedule: Q04DX003 (ip), vehicle: saline 91 % of control | [20] 100 % of control

Cc1cccc(NC(=O)C(C)(C)C)c1C
inactive: [24] 106 % of control | [25] 95 % of control | [26] 101 % of control

CC/C=C(CC)/C(CC)=C(\Br)CC
inactive: [14] 94 % of control | [15] 92 % of control

Clc1ccccc1/C=C1\c2ccc(Br)cc2-c2cccc[n+]21
inactive: dose: 75.0 mg/kg/injection, schedule: Q01DX001 (ip), vehicle: other 87 % of control

COC(=O)c1ccccc1N=Nc1cc(C)c(C)cc1O
inactive: [24] 88 % of control | [25] 88 % of control | [26] 91 % of control

NC(=O)CNC(=O)CNC(=O)OCc1ccccc1 (Cbz-Gly-Gly-NH2)
inactive: [21] 100 % of control | [22] 92 % of control | [23] 92 % of control

CC12CC3CC(C)(C1)CC(CN=C(N)CS)(C3)C2
inactive: dose: 2.5 mg/kg/injection, schedule: Q01DX009 (ip), vehicle: Klucel (hydroxypropylcellulose) (HPC) 109 % of control | dose: 2.5 mg/kg/injection, schedule: Q04DX002 (ip), vehicle: Klucel (hydroxypropylcellulose) (HPC) 96 % of control | dose: 5.0 mg/kg/injection, schedule: Q01DX009 (ip), vehicle: Klucel (hydroxypropylcellulose) (HPC) 114 % of control | dose: 5.0 mg/kg/injection, schedule: Q04DX002 (ip), vehicle: Klucel (hydroxypropylcellulose) (HPC) 101 % of control | dose: 10.0 mg/kg/injection, schedule: Q01DX009 (ip), vehicle: Klucel (hydroxypropylcellulose) (HPC) 111 % of control | dose: 10.0 mg/kg/injection, schedule: Q04DX002 (ip), vehicle: Klucel (hydroxypropylcellulose) (HPC) 102 % of control

Nc1nc(N)c(CCCOc2ccccc2Cl)c(N)n1
inactive: [9] 102 % of control | [10] 102 % of control

O=C(Nc1ccc(Br)cc1)Oc1ccccc1C(=O)Nc1ccccc1
inactive: [24] 98 % of control | [25] 98 % of control | [26] 88 % of control

O=c1[nH][nH]c(Cc2ccccc2)c1-c1ccccc1
inactive: [11] 102 % of control | [12] 98 % of control | [13] 101 % of control

O=Cc1cc(=O)[nH]c(S)[n+]1-c1ccccc1
inactive: dose: 50.0 mg/kg/injection, schedule: Q04DX002 (ip), vehicle: Klucel (hydroxypropylcellulose) (HPC) 96 % of control | [17] 96 % of control | [18] 101 % of control

CC(C)(O)CNCCCN
inactive: [7] 96 % of control | [8] 94 % of control | dose: 300.0 mg/kg/injection, schedule: Q01DX001 (ip), vehicle: saline 102 % of control
